{
  "source": "patent US11739074B2",
  "about": "“Ras inhibitors” (Revolution Medicines, Inc., priority 2019, dated 2023)",
  "type_in_all_cases": "cell-based",
  "key": {"AsPC-1 (K-Ras G12D) [1]": {"system": "AsPC-1 (K-Ras G12D)", "test": "CellTiter-Glo cell viability assay, AsPC-1", "settings": "Homo sapiens, ASPC1, 120 h", "how_it_was_run": "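Luminescence from CellTiter-Glo serves as the viability read-out after cells are treated with compound for 5 days. Each well's signal is divided by the DMSO average and multiplied by 100, and curves are fitted by four-parameter logistic regression.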"}, "NCI-H358 (K-Ras G12C)": {"system": "NCI-H358 (K-Ras G12C)", "test": "CellTiter-Glo cell viability assay, H358", "settings": "Homo sapiens, NCI-H358, 120 h, NCI-H358, K-Ras G12C, 5-day treatment; read-out: H358 Cell Viability IC50", "procedure": "Determination of Cell Viability in RAS Mutant Cancer Cell Lines\nProtocol: CellTiter-Glo® Cell Viability Assay\nNote—The following protocol describes a procedure for monitoring cell viability of K-Ras mutant cancer cell lines in response to a compound of the invention. Other RAS isoforms may be employed, though the number of cells to be seeded will vary based on cell line used.\nTest compounds (132.5 nL) were directly dispensed into the assay plates containing cells. […] On day 5, assay plates and their contents were equilibrated to room temperature for approximately 30 minutes. […] Luminescence was measured using the PerkinElmer Enspire. Data were normalized by the following: (Sample signal/Avg. DMSO)*100. The data were fit using a four-parameter logistic fit."}, "AsPC-1 (K-Ras G12D) [2]": {"system": "AsPC-1 (K-Ras G12D)", "test": "Potency assay: pERK in AsPC-1 cells", "settings": "Homo sapiens"}, "[3]": {"settings": "AsPC-1, K-Ras G12D, 5-day treatment, read-out: AsPC-1 Cell Viability IC50"}, "[4]": {"settings": "ASPC1, AsPC-1 cells, K-Ras G12D, read-out: pERK EC50 (AsPC-1 KRAS G12D)"}, "[5]": {"settings": "ASPC1, read-out: pERK EC50 (AsPC-1 KRAS G12D)"}, "[6]": {"settings": "read-out: AsPC-1 Cell Viability IC50, AsPC-1, K-Ras G12D, 5-day treatment"}},
  "note": "Read-outs that look alike come from different tables or passages of the source.",
  "data": [
    {"smiles": "CCn1c(-c2cnccc2COC)c2c3cc(ccc31)-c1cc(O)cc(c1)C[C@H](NC(=O)[C@H](C(C)C)N(C)C(=O)CCN(C)C(=O)[C@@H]1CN1)C(=O)N1CCC[C@H](N1)C(=O)OCC(C)(C)C2", "note": "[Compound 40]", "values": [
      {"measurement": "IC50", "setting": "AsPC-1 (K-Ras G12D) [1]; [3]", "value": "> 10", "unit": "µM"},
      {"measurement": "IC50", "setting": "NCI-H358 (K-Ras G12C)", "value": "100 to 1000", "unit": "nM"}
    ]},
    {"smiles": "CCn1c(-c2cnccc2COC)c2c3cc(ccc31)-c1cccc(c1)C[C@H](NC(=O)[C@H](C(C)C)N(C)C(=O)CCN=C=NCCOC)C(=O)N1CCC[C@H](N1)C(=O)OCC(C)(C)C2", "note": "[23 A and B]", "values": [
      {"measurement": "IC50", "setting": "AsPC-1 (K-Ras G12D) [1]; [3]", "value": "1 to 10", "unit": "µM"},
      {"measurement": "IC50", "setting": "NCI-H358 (K-Ras G12C)", "value": "1000 to 10000", "unit": "nM"}
    ]},
    {"smiles": "CCn1c(-c2cnccc2COC)c2c3cc(ccc31)-c1cc(O)cc(c1)C[C@H](NC(=O)[C@H](C(C)C)N(C)C(=O)C1CN(C(=O)[C@H]3CN3)C1)C(=O)N1CCC[C@H](N1)C(=O)OCC(C)(C)C2", "note": "[Compound 5]", "values": [
      {"measurement": "IC50", "setting": "AsPC-1 (K-Ras G12D) [1]; [3]", "value": "> 10", "unit": "µM"},
      {"measurement": "IC50", "setting": "NCI-H358 (K-Ras G12C)", "value": "10 to 100", "unit": "nM"}
    ]},
    {"smiles": "CCn1c(-c2cnccc2COC)c2c3cc(ccc31)-c1cccc(c1)C[C@H](NC(=O)[C@H](C(C)C)N(C)C(=O)CCN=C=NCc1c(OC)cccc1OC)C(=O)N1CCC[C@H](N1)C(=O)OCC(C)(C)C2", "note": "[62 A and B]", "values": [
      {"measurement": "IC50", "setting": "AsPC-1 (K-Ras G12D) [1]; [3]", "value": "1 to 10", "unit": "µM"},
      {"measurement": "IC50", "setting": "NCI-H358 (K-Ras G12C)", "value": "1000 to 10000", "unit": "nM"}
    ]},
    {"smiles": "CCn1c(-c2cccnc2[C@H](C)OC)c2c3cc(ccc31)-c1cc(O)cc(c1)C[C@H](NC(=O)[C@H](C(C)C)N(C)C(=O)C1CN(S(=O)(=O)[C@H]3CN3C)C1)C(=O)N1CCC[C@H](N1)C(=O)OCC(C)(C)C2", "note": "(single isomer, unassigned) [Compound 117]", "values": [
      {"measurement": "EC50", "setting": "AsPC-1 (K-Ras G12D) [2]; [4]", "value": "< 5", "unit": "µM"},
      {"measurement": "IC50", "setting": "AsPC-1 (K-Ras G12D) [1]; [3]", "value": "1 to 10", "unit": "µM"}
    ]},
    {"smiles": "CCn1c(-c2cccnc2[C@H](C)OC)c2c3cc(ccc31)-c1cc(O)cc(c1)C[C@H](NC(=O)[C@H](C(C)C)N(C)C(=O)[C@H]1CCCN1C(=O)[C@@H]1CN1)C(=O)N1CCC[C@H](N1)C(=O)OCC(C)(C)C2", "note": "[Compound 151]", "values": [
      {"measurement": "EC50", "setting": "AsPC-1 (K-Ras G12D) [2]; [5]", "value": "< 5", "unit": "µM"},
      {"measurement": "IC50", "setting": "AsPC-1 (K-Ras G12D) [1]; [6]", "value": "1 to 10", "unit": "µM"}
    ]},
    {"smiles": "CCN1C[C@@H]1C(=O)N(C)CC(=O)N(C)[C@H](C(=O)N[C@H]1Cc2cc(O)cc(c2)-c2ccc3c(c2)c(c(-c2cccnc2[C@H](C)OC)n3CC)CC(C)(C)COC(=O)[C@@H]2CCCN(N2)C1=O)C1CCCC1", "note": "(stereo partly shown) [Compound 309]", "values": [
      {"measurement": "EC50", "setting": "AsPC-1 (K-Ras G12D) [2]; [4]", "value": "< 5", "unit": "µM"},
      {"measurement": "IC50", "setting": "AsPC-1 (K-Ras G12D) [1]; [3]", "value": "0.01 to 0.1", "unit": "µM"}
    ]},
    {"smiles": "CCn1c(-c2cccnc2[C@H](C)OC)c2c3cc(ccc31)-c1cc(O)cc(c1)C[C@H](NC(=O)[C@H](C(C)C)N1CC[C@@]3(CCN(C(=O)[C@H]4CN4)C3)C1=O)C(=O)N1CCC[C@H](N1)C(=O)OCC(C)(C)C2", "note": "[Compound 149]", "values": [
      {"measurement": "EC50", "setting": "AsPC-1 (K-Ras G12D) [2]; [4]", "value": "< 5", "unit": "µM"},
      {"measurement": "IC50", "setting": "AsPC-1 (K-Ras G12D) [1]; [3]", "value": "1 to 10", "unit": "µM"}
    ]},
    {"smiles": "CCn1c(-c2cccnc2[C@H](C)OC)c2c3cc(ccc31)-c1cc(O)cc(c1)C[C@H](NC(=O)[C@@H](C(C)C)N(C)C(=O)[C@@]1(C)CCCN1C(=O)[C@@H]1CN1)C(=O)N1CCC[C@H](N1)C(=O)OCC(C)(C)C2", "note": "[Compound 242]", "values": [
      {"measurement": "EC50", "setting": "AsPC-1 (K-Ras G12D) [2]; [4]", "value": "< 5", "unit": "µM"},
      {"measurement": "IC50", "setting": "AsPC-1 (K-Ras G12D) [1]; [3]", "value": "1 to 10", "unit": "µM"}
    ]},
    {"smiles": "CCn1c(-c2cccnc2[C@H](C)OC)c2c3cc(ccc31)-c1cc(O)cc(c1)C[C@H](NC(=O)[C@H](C(C)C)N1CC[C@@]3(CCN(C[C@@H]4CN4)C3)C1=O)C(=O)N1CCC[C@H](N1)C(=O)OCC(C)(C)C2", "note": "[Compound 138]", "values": [
      {"measurement": "EC50", "setting": "AsPC-1 (K-Ras G12D) [2]; [4]", "value": "< 5", "unit": "µM"},
      {"measurement": "IC50", "setting": "AsPC-1 (K-Ras G12D) [1]; [3]", "value": "> 10", "unit": "µM"}
    ]},
    {"smiles": "CCn1c(-c2cccnc2[C@H](C)OC)c2c3cc(ccc31)-c1cc(O)cc(c1)C[C@H](NC(=O)[C@H](C(C)C)N(C)C(=O)[C@H]1CC[C@@H](C)N1C(=O)[C@H]1CN1)C(=O)N1CCC[C@H](N1)C(=O)OCC(C)(C)C2", "note": "[Compound 154]", "values": [
      {"measurement": "EC50", "setting": "AsPC-1 (K-Ras G12D) [2]; [5]", "value": "< 5", "unit": "µM"},
      {"measurement": "IC50", "setting": "AsPC-1 (K-Ras G12D) [1]; [6]", "value": "1 to 10", "unit": "µM"}
    ]},
    {"smiles": "CCn1c(-c2cccnc2[C@H](C)OC)c2c3cc(ccc31)-c1cc(O)cc(c1)C[C@H](NC(=O)[C@H](C(C)C)N(C)C(=O)[C@]13C[C@H]1CCN3C(=O)[C@H]1CN1)C(=O)N1CCC[C@H](N1)C(=O)OCC(C)(C)C2", "note": "[Compound 244]", "values": [
      {"measurement": "EC50", "setting": "AsPC-1 (K-Ras G12D) [2]; [4]", "value": "< 5", "unit": "µM"},
      {"measurement": "IC50", "setting": "AsPC-1 (K-Ras G12D) [1]; [3]", "value": "1 to 10", "unit": "µM"}
    ]},
    {"smiles": "CCn1c(-c2cccnc2[C@H](C)OC)c2c3cc(ccc31)-c1cc(O)cc(c1)C[C@H](NC(=O)[C@H](C(C)C)N(C)C(=O)CC1CN(C(=O)[C@@H]3CN3)C1)C(=O)N1CCC[C@H](N1)C(=O)OCC(C)(C)C2", "note": "[Compound 178]", "values": [
      {"measurement": "EC50", "setting": "AsPC-1 (K-Ras G12D) [2]; [4]", "value": "< 5", "unit": "µM"},
      {"measurement": "IC50", "setting": "AsPC-1 (K-Ras G12D) [1]; [3]", "value": "> 10", "unit": "µM"}
    ]},
    {"smiles": "CCn1c(-c2cnccc2COC)c2c3cc(ccc31)-c1cc(O)cc(c1)C[C@H](NC(=O)[C@H](C(C)C)N(C)C(=O)CN(C)C(=O)[C@H]1N[C@@H]1c1ccc(OC)cc1)C(=O)N1CCC[C@H](N1)C(=O)OCC(C)(C)C2", "note": "[Compound 97]", "values": [
      {"measurement": "EC50", "setting": "AsPC-1 (K-Ras G12D) [2]; [5]", "value": "< 5", "unit": "µM"},
      {"measurement": "IC50", "setting": "AsPC-1 (K-Ras G12D) [1]; [6]", "value": "1 to 10", "unit": "µM"}
    ]}
  ]
}
